# In US9676751B2, “2-amino-3-ester-pyridl orexin receptor antagonists” (MERCK SHARP & DOHME CORP., priority 2013, dated 2017):
# Assays:
# human orexin-2 receptor = biological target: T1, human orexin-2 receptor (Homo sapiens, UniProt O43614); assay: FLIPR Ca2+ Flux Assay, CHO cells expressing the human orexin-2 receptor; type: cell-based; conditions: agonist 70 pM Ala-6,12 orexin-A, read-out: hOX2R FLIPR IC50
# T1 construct: expressed in transfected cells; host or cells: CHO cells
# T1 sequence (O43614 1-444): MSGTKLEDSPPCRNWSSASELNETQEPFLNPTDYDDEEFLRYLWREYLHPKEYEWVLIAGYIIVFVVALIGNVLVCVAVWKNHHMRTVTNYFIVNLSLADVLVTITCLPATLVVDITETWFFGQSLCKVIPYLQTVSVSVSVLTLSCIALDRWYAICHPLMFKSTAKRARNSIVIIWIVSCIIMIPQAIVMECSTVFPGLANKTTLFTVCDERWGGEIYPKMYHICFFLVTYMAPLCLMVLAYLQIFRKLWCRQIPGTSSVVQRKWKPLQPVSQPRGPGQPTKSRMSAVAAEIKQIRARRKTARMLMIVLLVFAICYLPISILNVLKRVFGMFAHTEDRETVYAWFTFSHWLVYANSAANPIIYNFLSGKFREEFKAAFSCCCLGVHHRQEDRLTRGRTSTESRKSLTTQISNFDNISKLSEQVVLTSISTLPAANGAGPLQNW
# Description: The utility of the compounds in accordance with the present invention as orexin receptor OX1R and/or OX2R antagonists may be readily determined without undue experimentation by methodology well known in the art, including the “FLIPR Ca^2+ Flux Assay” (Okumura et al., Biochem. Biophys. Res. Comm. 280:976-981, 2001). In a typical experiment the OX1 and OX2 receptor antagonistic activity of the compounds of the present invention was determined in accordance with the following experimental method. For intracellular calcium measurements, Chinese hamster ovary (CHO) cells expressing the rat orexin-1 receptor or the human orexin-2 receptor, are grown in Iscove's modified DMEM containing 2 mM L-glutamine, […], 1% hypoxanthine-thymidine supplement, 100 U/ml penicillin, 100 μg/ml streptomycin and 10% heat-inactivated fetal calf serum (FCS). The cells are seeded at 20,000 cells/well into Becton-Dickinson black 384-well clear bottom sterile plates coated with poly-D-lysine. All reagents were from GIBCO-Invitrogen Corp. The seeded plates are incubated overnight at 37° C. and 5% CO2. Ala-6,12 human orexin-A as the agonist is prepared as a 1 mM stock solution in 1% bovine serum albumin (BSA) and diluted in assay buffer (HBSS containing 20 mM HEPES, 0.1% BSA and 2.5 mM probenecid, pH7.4) for use in the assay at a final concentration of 70 pM. Test compounds are prepared as 10 mM stock solution in DMSO, then diluted in 384-well plates, first in DMSO, then assay buffer. On the day of the assay, cells are washed 3 times with 100 μl assay buffer and then incubated for 60 min (37° C., 5% CO2) in 60 μl assay buffer containing 1 μM Fluo-4AM ester, 0.02% pluronic acid, and 1% BSA. The dye loading solution is then aspirated and cells are washed 3 times with 100 μl assay buffer. 30 μl of that same buffer is left in each well. Within the Fluorescent Imaging Plate Reader (FLIPR, Molecular Devices), test compounds are added to the plate in a volume of 25 μl, incubated for 5 min and finally 25 μl of agonist is added. Fluorescence is measured for each well at 1 second intervals for 5 minutes and the height of each fluorescence peak is compared to the height of the fluorescence peak induced by 70 pM Ala-6,12 orexin-A with buffer in place of antagonist. For each antagonist, IC50 value (the concentration of compound needed to inhibit 50% of the agonist response) is determined. Alternatively, compound potency can be assessed by a radioligand binding assay (described in Bergman et. al. Bioorg. Med. Chem. Lett. 2008, 18, 1425-1430) in which the inhibition constant (Ki) is determined in membranes prepared from CHO cells expressing either the OX1 or OX2 receptor. The intrinsic orexin receptor antagonist activity of a compound which may be used in the present invention may be determined by these assays.
# hOX1R = biological target: T2, hOX1R (Homo sapiens, UniProt O43613); assay: FLIPR Ca2+ Flux Assay, CHO cells expressing the orexin-1 receptor; type: cell-based; conditions: agonist 70 pM Ala-6,12 orexin-A
# T2 construct: expressed in transfected cells; host or cells: CHO cells
# T2 sequence (O43613 1-425): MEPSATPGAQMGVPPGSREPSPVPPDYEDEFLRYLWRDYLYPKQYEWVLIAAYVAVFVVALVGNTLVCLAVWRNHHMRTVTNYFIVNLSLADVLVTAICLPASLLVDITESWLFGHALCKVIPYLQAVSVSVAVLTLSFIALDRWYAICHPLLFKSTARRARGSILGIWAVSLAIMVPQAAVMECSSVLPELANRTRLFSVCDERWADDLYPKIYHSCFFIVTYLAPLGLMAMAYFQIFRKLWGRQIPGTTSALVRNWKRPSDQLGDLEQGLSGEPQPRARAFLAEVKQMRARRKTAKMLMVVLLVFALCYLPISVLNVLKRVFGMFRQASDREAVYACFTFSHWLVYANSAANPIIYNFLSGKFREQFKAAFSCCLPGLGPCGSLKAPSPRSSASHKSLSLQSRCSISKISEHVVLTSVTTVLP
structure (smiles),measurement,setting,value
"COC(=O)c1c(OC)ccnc1N[C@@H]1CC[C@@H](C)N(C(=O)c2c(F)cccc2-c2noc(C)n2)C1 [Example 10, methyl 2-{[(3R,6R)-1-{[2-fluoro-6-(5-methyl-1,2,4-oxadiazol-3-yl)phenyl]carbonyl}-6-methylpiperidin-3-yl]amino}-4-methoxypyridine-3-carboxylate]",IC50,human orexin-2 receptor,88 nM
same,IC50,hOX1R,332 nM
